Measurements: ChEMBL document CHEMBL1201862, “PubChem BioAssay data set” (2004)
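Results reflect a 48-hour exposure of cells in 96-well plates to compound at five concentrations. At the GI50, growth is halved.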 Activity calls are given as the source filed them. No stated cut-off is given here; in the data, active = GI50 up to about 1.1 µM and inactive = higher.

What was measured:
Experiment in all cases: NCI tumour cell line growth inhibition, 48 h
786-0 = tested on: 786-0
A549 = tested on: A549
CAKI-1 = tested on: CAKI-1
COLO 205 = tested on: COLO 205
HCT-116 = tested on: HCT-116
HCT-15 = tested on: HCT-15
HT-29 = tested on: HT-29
LOX IMVI = tested on: LOX IMVI
MOLT-4 = tested on: MOLT-4
Malme-3M = tested on: Malme-3M
NCI-H460 = tested on: NCI-H460
RPMI-8226 = tested on: RPMI-8226
RXF 393 = tested on: RXF 393
SK-MEL-2 = tested on: SK-MEL-2
SNB-19 = tested on: SNB-19
SR = tested on: SR
SW-620 = tested on: SW-620
UACC-257 = tested on: UACC-257
MDA-MB-231 = tested on: MDA-MB-231
MDA-MB-435 = tested on: MDA-MB-435

Measured: GI50

CCOC(=O)C1C(c2ccc([N+](=O)[O-])cc2)NC(c2ccc([N+](=O)[O-])cc2)C(C(=O)OC)S1(=O)=O (centres undefined)
> 100 µM: HCT-15
inactive: 786-0 > 100 µM | A549 > 100 µM | CAKI-1 > 100 µM | COLO 205 > 100 µM | HCT-116 > 100 µM | HT-29 > 100 µM | LOX IMVI > 100 µM | MOLT-4 > 100 µM | Malme-3M > 100 µM | NCI-H460 > 100 µM | RPMI-8226 > 100 µM | RXF 393 > 100 µM | SK-MEL-2 > 100 µM | SNB-19 > 100 µM | SR > 100 µM | SW-620 > 100 µM | UACC-257 > 100 µM

C=C(CC(=O)Nc1ccc(C(=O)OC)o1)C(=O)OC
24.7 µM: HCT-15
inactive: 786-0 19.7 µM | A549 18.2 µM | CAKI-1 24.5 µM | COLO 205 19.6 µM | HCT-116 29.4 µM | HT-29 26.5 µM | LOX IMVI 30.8 µM | MDA-MB-231 27.7 µM | MDA-MB-435 17.8 µM | MOLT-4 18.8 µM | Malme-3M 19.7 µM | NCI-H460 29.9 µM | RXF 393 18.5 µM | SK-MEL-2 20.7 µM | SNB-19 25.3 µM | SW-620 22 µM | UACC-257 21.3 µM

COCc1cc2c(cc1/C(=C/[N+](=O)[O-])CS(=O)(=O)c1ccccc1)OCO2
inactive: 786-0 > 100 µM | A549 > 100 µM | CAKI-1 > 100 µM | COLO 205 > 100 µM | HCT-116 > 100 µM | HT-29 > 100 µM | LOX IMVI > 100 µM | MDA-MB-435 > 100 µM | MOLT-4 > 100 µM | NCI-H460 > 100 µM | RPMI-8226 > 100 µM | RXF 393 > 100 µM | SR > 100 µM | SW-620 > 100 µM | UACC-257 > 100 µM
> 100 µM: HCT-15

O=c1c(Br)cc2c(-c3ccccc3)c3cc(Br)c(O)c(Br)c3oc-2c1Br
56 µM: HCT-15
inactive: 786-0 > 100 µM | A549 > 100 µM | CAKI-1 > 100 µM | COLO 205 51.2 µM | HCT-116 44.8 µM | HT-29 21.7 µM | LOX IMVI 37.4 µM | MDA-MB-231 > 100 µM | MDA-MB-435 > 100 µM | MOLT-4 29.1 µM | Malme-3M > 100 µM | NCI-H460 77.4 µM | RPMI-8226 > 100 µM | RXF 393 > 100 µM | SNB-19 > 100 µM | SW-620 > 100 µM | UACC-257 > 100 µM

CC(N/N=C(\S)N1CCN(c2ccccn2)CC1)c1nccc2ccccc12 (centres undefined)
0.641 µM: HCT-15
inactive: A549 1.65 µM | CAKI-1 1.61 µM | MDA-MB-435 1.66 µM | SK-MEL-2 4.23 µM | SNB-19 2.56 µM
active: 786-0 0.693 µM | COLO 205 0.119 µM | HT-29 < 0.01 µM | LOX IMVI 0.804 µM | MOLT-4 < 0.01 µM | Malme-3M 1.03 µM | NCI-H460 0.593 µM | RXF 393 0.908 µM | SR < 0.0218 µM | SW-620 0.316 µM | UACC-257 0.0318 µM

Cc1cc2c([nH]c3ccccc32)c2c1OC(C)(C)C1C3CC(C)(C)Oc4c(C)cc5c6ccccc6n(c5c43)C21 (centres undefined)
inactive: 786-0 > 100 µM | A549 > 100 µM | CAKI-1 > 100 µM | COLO 205 > 100 µM | HCT-116 > 100 µM | HT-29 > 100 µM | LOX IMVI > 100 µM | MOLT-4 > 100 µM | Malme-3M > 100 µM | NCI-H460 52.7 µM | RPMI-8226 > 100 µM | RXF 393 > 100 µM | SK-MEL-2 > 100 µM | SNB-19 > 100 µM | SR > 100 µM | SW-620 > 100 µM | UACC-257 > 100 µM
> 100 µM: HCT-15

O=C(O)c1cc2ccccc2c(/N=N/c2c([N+](=O)[O-])cc([N+](=O)[O-])cc2S(=O)(=O)O)c1O
> 100 µM: HCT-15
inactive: 786-0 > 100 µM | A549 > 100 µM | CAKI-1 > 100 µM | COLO 205 > 100 µM | HCT-116 > 100 µM | HT-29 > 100 µM | LOX IMVI > 100 µM | MDA-MB-231 > 100 µM | MDA-MB-435 > 100 µM | MOLT-4 > 100 µM | Malme-3M > 100 µM | RPMI-8226 > 100 µM | RXF 393 > 100 µM | SK-MEL-2 > 100 µM | SNB-19 > 100 µM | SW-620 > 100 µM | UACC-257 > 100 µM

COC(=O)/N=[N+](\[O-])C(c1ccc(OC)cc1)C1CCCCC1 (centres undefined)
active: COLO 205 0.611 µM | HCT-116 0.652 µM | RPMI-8226 0.948 µM
1.26 µM: HCT-15
inactive: 786-0 3.82 µM | A549 5.07 µM | CAKI-1 2.12 µM | HT-29 1.29 µM | LOX IMVI 3.33 µM | MDA-MB-231 3 µM | MDA-MB-435 5.01 µM | MOLT-4 2.87 µM | Malme-3M 2.02 µM | NCI-H460 1.39 µM | RXF 393 9.18 µM | SK-MEL-2 13.3 µM | SNB-19 9.53 µM | SW-620 3.4 µM | UACC-257 1.47 µM

COc1ccc(-c2nnc(CCCCCCCCc3nnc(-c4ccc(OC)cc4)o3)o2)cc1
inactive: 786-0 57.4 µM | A549 > 100 µM | CAKI-1 > 100 µM | COLO 205 > 100 µM | HCT-116 60.7 µM | HT-29 > 100 µM | LOX IMVI 91.4 µM | MDA-MB-231 18.3 µM | MDA-MB-435 > 100 µM | MOLT-4 > 100 µM | Malme-3M > 100 µM | NCI-H460 > 100 µM | SK-MEL-2 > 100 µM | SNB-19 36.4 µM | SW-620 > 100 µM | UACC-257 > 100 µM
> 100 µM: HCT-15

COc1cc(/C=C/c2ccc(OC)c(OC)c2OC)cc(OC)c1OC
18.5 µM: HCT-15
inactive: 786-0 21.8 µM | A549 27.2 µM | CAKI-1 25.1 µM | COLO 205 17.3 µM | HCT-116 14.6 µM | HT-29 20.8 µM | LOX IMVI 16.1 µM | MOLT-4 19.3 µM | Malme-3M 20.2 µM | NCI-H460 20.3 µM | RPMI-8226 14.1 µM | RXF 393 22 µM | SK-MEL-2 16.9 µM | SNB-19 21.3 µM | SR 12.2 µM | SW-620 29.3 µM | UACC-257 20.9 µM

COc1cc(S(=O)(=O)Nc2ccc(-c3csc(N4C(=O)C(Cl)C4c4cccc(Oc5ccccc5)c4)n3)cc2)ccc1Cl (centres undefined)
inactive: 786-0 13.7 µM | A549 > 100 µM | CAKI-1 20.2 µM | COLO 205 21.5 µM | HCT-116 35.6 µM | HT-29 49.5 µM | LOX IMVI 2.24 µM | MDA-MB-435 20.3 µM | MOLT-4 15.3 µM | Malme-3M > 100 µM | NCI-H460 > 100 µM | RPMI-8226 19.7 µM | RXF 393 3.13 µM | SK-MEL-2 31 µM | SNB-19 > 100 µM | SR 3.13 µM | SW-620 36.1 µM | UACC-257 39.6 µM
> 100 µM: HCT-15

O=[N+]([O-])c1ccc(OCc2nnc(CCCCCCCCc3nnc(COc4ccc([N+](=O)[O-])cc4)o3)o2)cc1
> 100 µM: HCT-15
inactive: 786-0 > 100 µM | A549 > 100 µM | COLO 205 > 100 µM | HCT-116 77.6 µM | HT-29 > 100 µM | MDA-MB-231 32.7 µM | MDA-MB-435 > 100 µM | MOLT-4 > 100 µM | Malme-3M > 100 µM | NCI-H460 > 100 µM | RPMI-8226 > 100 µM | RXF 393 25.1 µM | SK-MEL-2 > 100 µM | SNB-19 > 100 µM | SW-620 > 100 µM | UACC-257 > 100 µM

COC(=O)C1=C(CCCCO[Si](C)(C)C(C)(C)C)NC(=O)N2[C@H](CCOCc3ccccc3)CC[C@@H]12
40.6 µM: HCT-15
inactive: 786-0 44.7 µM | A549 26.7 µM | CAKI-1 34 µM | COLO 205 27.9 µM | HCT-116 24 µM | MDA-MB-231 44.9 µM | MDA-MB-435 39.2 µM | MOLT-4 > 100 µM | Malme-3M 40 µM | NCI-H460 38 µM | RPMI-8226 49.4 µM | SK-MEL-2 75.3 µM | SNB-19 78.3 µM | UACC-257 24.7 µM

COc1cc2c(c3c1c(=O)c1ccccc1n3C)C=CC(C)(C)O2 [ACRONINE]
active: SR 0.885 µM
inactive: 786-0 71 µM | A549 > 100 µM | CAKI-1 > 100 µM | COLO 205 > 100 µM | HCT-116 > 100 µM | HT-29 56.9 µM | LOX IMVI > 100 µM | MOLT-4 16.2 µM | Malme-3M > 100 µM | NCI-H460 43.6 µM | RPMI-8226 27.9 µM | RXF 393 25.1 µM | SK-MEL-2 > 100 µM | SNB-19 > 100 µM | SW-620 > 100 µM | UACC-257 > 100 µM
45.3 µM: HCT-15

N#C/C(=C/c1cccnc1)C(=O)c1ccccc1
> 100 µM: HCT-15
inactive: 786-0 > 100 µM | A549 > 100 µM | CAKI-1 > 100 µM | COLO 205 > 100 µM | HCT-116 > 100 µM | HT-29 > 100 µM | LOX IMVI > 100 µM | MOLT-4 > 100 µM | Malme-3M > 100 µM | NCI-H460 > 100 µM | RPMI-8226 > 100 µM | RXF 393 > 100 µM | SK-MEL-2 > 100 µM | SNB-19 > 100 µM | SR > 100 µM | SW-620 > 100 µM | UACC-257 > 100 µM
